In patent US20090131356A1, “miR-15, miR-26, miR-31, miR-145, miR-147, miR-188, miR-215, miR-216, miR-331, mmu-miR-292-3P REGULATED GENES AND PATHWAYS AS TARGETS FOR THERAPEUTIC INTERVENTION” (ASURAGEN, INC., priority 2006, published 2009):

Columns and labels:
SCLC and NSCLC cells = conditions: various lung cancer cells, SCLC and NSCLC (Tsai et al., 1993; Ohsaki et al., 1992); cited from earlier work
HCC2935 cells = experiment: Alamar Blue proliferation assay, HCC2935; format: cell-based, human; conditions: 30 nM, normalized to negative control miRNA (100% proliferation)
From the text: (§1) The inventors assessed the therapeutic effect of hsa-miR-147 for lung cancer by using 12 individual lung cancer cell lines. To measure cellular proliferation of lung cancer cells, the following parental non-small cell lung cancer (NSCLC) cells were used: cells derived from lung adenocarcinoma (A549, H1299, H522, H838, Calu-3, HCC827, HCC2935), cells derived from lung squamous cell carcinoma (H520, H226), cells derived from lung adenosquamous cell carcinoma (H596), cells derived from lung bronchioalveolar carcinoma (H1650), and cells derived from lung large cell carcinoma (H460). In addition to these parental cell lines, highly metastatic NSCLC cells were used that stably express the firefly luciferase gene: A549-luc, H460-luc, HCC827-luc, H1650-luc, H441-luc. Unlike the parental cell lines, these metastatic cells readily migrate to distant sites of the test animal and form metastases upon subcutaneous, orthotopic, or intravenous injection. Synthetic hsa-miR-147 or negative control miRNA was delivered via lipid-based transfection into A549, H1299, H522, H838, Calu-3, HCC827, HCC2935, H520, H596, H1650, H460, A549-luc, H460-luc, HCC827-luc, H1650-luc, H441-luc cells and via electroporation into H226 cells. […]

PPC-1 cells = experiment: Alamar Blue proliferation assay, PPC-1; format: cell-based, human; conditions: 30 nM, normalized to negative control miRNA (100% proliferation)
From the text: (§2) The inventors assessed the therapeutic effect of hsa-miR-147 for prostate cancer by using 4 individual human prostate cancer cell lines. To measure cellular proliferation of prostate cancer cells, the following prostate cancer cell lines were used: PPC-1 and PC3, derived from a bone metastasis; Du145, derived from a brain metastasis; RWPE2, derived from prostate cells immortalized by human papillomavirus 18 and transformed by the K-RAS oncogene (Bello et al., 1997; Stone et al., 1978; Brothman et al., 1991). PC3, PPC-1, and Du145 cells lack expression of the prostate-specific antigen (PSA) and are independent of androgen receptor (AR) signaling. In contrast, RWPE2 cells test positive for PSA and AR.
(§3) PPC-1, Du145 and RWPE2 cells were transfected with synthetic hsa-miR-147 (Pre-miR™-hsa-miR-147, Ambion cat. no. AM17100) or negative control miRNA (NC; Pre-miR™ microRNA Precursor Molecule-Negative Control #2; Ambion cat. no. AM17111) in a 96-well format using a lipid-based transfection reagent. […] Proliferation was assessed 4-7 days post-transfection using Alamar Blue™ (Invitrogen) following the manufacturer's instructions. […] Fluorescent light units (FLU) were measured after 3 hours, normalized to the control, and plotted as percent change in proliferation. […]

[1] = tested on: human prostate cancer cells PPC-1, Du145 and RWPE2; experiment: Alamar Blue proliferation assay, average over prostate cancer cell lines; format: cell-based; conditions: 30 nM, 4-7 days post-transfection; average of PPC-1, Du145, RWPE2; vs negative control miRNA (100%)
From the text: as §2, §3

[2] = tested on: parental lung cancer cells; experiment: Alamar Blue proliferation assay, average over parental lung cancer cell lines; format: cell-based, human; conditions: average of 12 parental lung cancer cell lines; vs negative control miRNA (=100%); 72 hours (Calu-3 10 days)
From the text: as §1

Row | Compound | IC50 (SCLC and NSCLC cells) [µM] | % proliferation (HCC2935 cells) [%] | % proliferation (PPC-1 cells) [%] | inhibition of cellular proliferation, on average [1] [%] | inhibition of cellular proliferation, on average [2] [%]
1 | COc1cc([C@@H]2c3cc4c(cc3[C@@H](O[C@@H]3O[C@@H]5CO[C@@H](C)O[C@H]5[C@H](O)[C@H]3O)[C@H]3COC(=O)[C@H]23)OCO4)cc(OC)c1O [Etoposide, etoposide] | 1 to 25 | – | – | – | –
2 | hsa-miR-147: Synthetic pre-miR-147 (Ambion AM17100; Dharmacon in vivo); mature sequence GUGUGUGGAAAUGCUUCUGC, MIMAT0000251, SEQ ID NO:114 (synthetic pre-miR (Ambion/Dharmacon), chemistry not given here; listed as Homo sapiens) | – | 60.35 | 76.98 | 27.48 | 25
